From patent US20020111353A1, “Inhibitors of c-Jun N-terminal kinases (JNK) and other protein kinases” (priority 2000, published 2002)

How the values were obtained:
Format in all cases: biochemical
[1] = target: activated p38 (Homo sapiens, UniProt Q16539); experiment: p38 inhibition assay; conditions: read-out: p38 (Ki rating)
Method: Two splice variants of human p38 kinase, CSBP1 and CSBP2, have been identified. […] The polymerase chain reaction product was cloned into the pET-15b vector (Novagen). The baculovirus transfer vector, pVL-(His)6-p38 was constructed by subcloning a XbaI-BamHI fragment of pET15b-(His)6-p38 into the complementary sites in plasmid pVL1392 (Pharmingen).
p38 was activated by combining 0.5 mg/ml p38 with 0.005 mg/ml DD-double mutant MKK6 in Buffer B+10 mM MgCl2, 2 mM ATP, 0.2 mM Na2VO4 for 30 minutes at 20° C. The activation mixture was then loaded onto a 1.0×10 cm MonoQ column (Pharmacia) and eluted with a linear 20 column volume gradient to 1.0 M NaCl in Buffer B. The activated p38 eluted after the ADP and ATP. The activated p38 peak was pooled and dialyzed against buffer B+0.2 mM Na2VO4 to remove the NaCl. The dialyzed protein was adjusted to 1.1M potassium phosphate by addition of a 4.0M stock solution and loaded onto a 1.0×10 cm HIC (Rainin Hydropore) column previously equilibrated in Buffer D (10% glycerol, 20 mM β-glycerophosphate, 2.0 mM DTT) +1.1MK2HPO4. The protein was eluted with a 20 column volume linear gradient to Buffer D+50 mM K2HPO4. The double phosphorylated p38 eluted as the main peak and was pooled for dialysis against Buffer B+0.2 mM Na2VO4 The activated p38 was stored at −70° C.
This assay is carried out in the presence of 10 mM MgCl2 and 100 mM HEPES buffer at pH 7.6. For a typical IC50 determination, a stock solution is prepared containing all of the above components and activated p38 (5 nM). The stock solution is aliquotted into vials. A fixed volume of DMSO or inhibitor in DMSO (final concentration of DMSO in reaction is 5%) is introduced to each vial, mixed and incubated for 15 minutes at room temperature. EGF receptor peptide, […], a phosphoryl acceptor in p38-catalyzed kinase reaction, is added to each vial to a final concentration of 200 μM. The kinase reaction is initiated with ATP (100 μM) and the vials are incubated at 30° C. After 30 minutes, the reactions are quenched with equal volume of 10% trifluoroacetic acid (TFA).
The phosphorylated peptide is quantified by HPLC analysis. Separation of phosphorylated peptide from the unphosphorylated peptide is achieved on a reverse phase column (Deltapak, 5 μm, C18 100D, part no. 011795) with a binary gradient of water and acteonitrile, each containing 0.1% TFA. IC50 (concentration of inhibitor yielding 50% inhibition) is determined by plotting the % activity remaining against inhibitor concentration.
This assay is carried out in the presence of 10 mM MgCl2, 25 mM β-glycerophosphate, 10% glycerol and 100 mM HEPES buffer at pH 7.6. For a typical Ki determination, the Km for ATP in the ATPase activity of activated p38 reaction is determined in the absence of inhibitor and in the presence of two concentrations of inhibitor. Ki is determined from the rate data as a function of inhibitor and ATP concentrations. A stock solution is prepared containing all of the above components and activated p38 (60 nM). The stock solution is aliquotted into vials. A fixed volume of DMSO or inhibitor in DMSO (final concentration of DMSO in reaction is 2.5%) is introduced to each vial, mixed and incubated for 15 minutes at room temperature. The reaction is initiated by adding various concentrations of ATP and then incubated at 30° C. After 30 minutes, the reactions are quenched with 50 μl of EDTA (0.1 M, final concentration), pH 8.0. The product of p38 ATPase activity, ADP, is quantified by HPLC analysis.
Separation of ADP from ATP is achieved on a reversed phase column (Supelcosil, LC-18, 3 μm, part no. 5-8985) using a binary solvent gradient of following composition: Solvent A—0.1 M phosphate buffer containing 8 mM tetrabutylammonium hydrogen sulfate (Sigma Chemical Co., catalogue no. T-7158), Solvent B—Solvent A with 30% methanol.

[2] = target: JNK1 (Homo sapiens, UniProt P45983); experiment: JNK1 inhibition assay (spectrophotometric coupled-enzyme assay, analogous to JNK3); conditions: read-out: JNK1 (Ki rating)
Method: (§1) Compounds were assayed for the inhibition of JNK3 by a spectrophotometric coupled-enzyme assay. In this assay, a fixed concentration of activated JNK3 (10 nM) was incubated with various concentrations of a potential inhibitor dissolved in DMSO for 10 minutes at 30° C. in a buffer containing 0.1 M HEPES buffer, pH 7.5, containing 10 mM MgCl2, 2.5 mM phosphoenolpyruvate, 200 μM NADH, 30 μg/mL pyruvate kinase, 10 μg/mL lactate dehydrogenase, and 200 μM EGF receptor peptide. The EGF receptor peptide has the sequence […], and is a phosphoryl acceptor in the JNK3-catalyzed kinase reaction. The reaction was initiated by the addition of 10 μM ATP and the assay plate is inserted into the spectrophotometer's assay plate compartment that was maintained at 30° C. The decrease of absorbance at 340 nm was monitored as a function of time. The rate data as a function of inhibitor concentration was fitted to competitive inhibition kinetic model to determine the Ki.
(§2) The JNK1 and JNK2 assays were performed in an analogous manner.

[3] = target: JNK2 (Homo sapiens, UniProt P45984); experiment: JNK2 inhibition assay (spectrophotometric coupled-enzyme assay, analogous to JNK3); conditions: read-out: JNK2 (Ki rating)
Method: as §1, §2

[4] = target: T1, activated JNK3 (Homo sapiens, UniProt P53779); experiment: JNK3 inhibition, spectrophotometric coupled-enzyme assay; conditions: for Ki: activated JNK3 10 nM, 10 μM ATP, 30° C., read-out: JNK3 (Ki rating); for p38/JNK3: ratio of p38 to JNK3 activity as a measure of selectivity
T1 construct: One such construct encodes amino acid residues Ser40-Glu402 of JNK3α1 and is preceded by Met and Gly residues; Met-Gly (added initiation methionine and glycine, from the NcoI cloning site) (N); made in house; host or cells: E. coli BL21 (DE3)
Text: A BLAST search of the EST database using the published JNK3α1 cDNA as a query identified an EST clone (#632588) that contained the entire coding sequence for human JNK3α1. Polymerase chain reactions (PCR) using pfu polymerase (Strategene) were used to introduce restriction sites into the CDNA for cloning into the pET-15B expression vector at the NcoI and BamHI sites. The protein was expressed in E. coli. Due to the poor solubility of the expressed full-length protein (Met 1-Gln 422), an N-terminally truncated protein starting at Ser residue at position 40 (Ser 40) was produced. This truncation corresponds to Ser 2 of JNK1 and JNK2 proteins, and is preceded by a methionine (initiation) and a glycine residue. The glycine residue was added in order to introduce an NcoI site for cloning into the expression vector. In addition, systematic C-terminal truncations were performed by PCR to identify a construct that give rise to diffraction-quality crystals. One such construct encodes amino acid residues Ser40-Glu402 of JNK3α1 and is preceded by Met and Gly residues.
Five mg of JNK3 was diluted to 0.5 mg/ml in 50 mM HEPES buffer, pH 7.5, containing 100 mM NaCl, 5 mM DTT, 20 mM MgCl2 and 1 mM ATP. GST-MKK7(DD) was added at a molar ratio of 1:2.5 GST-MKK7:JNK3. After incubation for 30 minutes at 25° C., the reaction mixture was concentrated 5-fold by ultrafiltration in a Centriprep-30 (Amicon, Beverly, Mass.), diluted to 10 ml and an additional 1 mM ATP added. This procedure was repeated three times to remove ADP and replenish ATP. The final addition of ATP was 5 mM and the mixture incubated overnight at 4° C.
The activated JNK3/GST-MKK7(DD) reaction mixture was exchanged into 50 mM HEPES buffer, pH 7.5, containing 5 mM DTT and 5% glycerol (w/v) by dialysis or ultrafiltration. The reaction mixture was adjusted to 1.1 M potassium phosphate, pH 7.5, and purified by hydrophobic interaction chromatography (at 25° C.) using a Rainin Hydropore column. […] Activated JNK3 (i.e. doubly phosphorylated JNK3) was stored at −70° C. at 0.25-1 mg/ml.
as §1

JNK1, sequence (P45983 whole entry, species assumed): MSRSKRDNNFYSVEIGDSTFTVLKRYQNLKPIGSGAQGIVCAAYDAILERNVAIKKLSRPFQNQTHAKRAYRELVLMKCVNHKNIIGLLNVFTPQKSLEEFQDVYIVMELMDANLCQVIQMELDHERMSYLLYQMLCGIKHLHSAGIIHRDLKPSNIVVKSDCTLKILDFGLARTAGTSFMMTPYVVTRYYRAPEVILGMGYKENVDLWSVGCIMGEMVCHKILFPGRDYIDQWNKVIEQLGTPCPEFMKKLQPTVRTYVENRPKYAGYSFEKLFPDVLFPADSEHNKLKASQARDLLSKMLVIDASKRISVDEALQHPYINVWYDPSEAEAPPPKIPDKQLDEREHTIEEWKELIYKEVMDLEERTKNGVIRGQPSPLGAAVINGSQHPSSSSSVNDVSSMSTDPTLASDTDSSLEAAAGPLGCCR
JNK2, sequence (P45984 whole entry, species assumed): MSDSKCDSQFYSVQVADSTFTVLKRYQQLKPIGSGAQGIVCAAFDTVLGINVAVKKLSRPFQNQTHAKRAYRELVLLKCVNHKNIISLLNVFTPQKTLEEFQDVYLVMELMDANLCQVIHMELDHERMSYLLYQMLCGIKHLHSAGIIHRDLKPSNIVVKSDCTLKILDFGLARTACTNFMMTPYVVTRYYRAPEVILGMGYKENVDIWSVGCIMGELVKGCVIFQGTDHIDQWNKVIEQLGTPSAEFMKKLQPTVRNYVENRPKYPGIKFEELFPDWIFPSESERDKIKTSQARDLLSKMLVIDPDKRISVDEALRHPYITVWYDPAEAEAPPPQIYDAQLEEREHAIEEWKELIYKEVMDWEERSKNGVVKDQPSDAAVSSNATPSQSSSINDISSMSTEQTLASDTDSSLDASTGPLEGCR
T1 sequence (P53779 40-402): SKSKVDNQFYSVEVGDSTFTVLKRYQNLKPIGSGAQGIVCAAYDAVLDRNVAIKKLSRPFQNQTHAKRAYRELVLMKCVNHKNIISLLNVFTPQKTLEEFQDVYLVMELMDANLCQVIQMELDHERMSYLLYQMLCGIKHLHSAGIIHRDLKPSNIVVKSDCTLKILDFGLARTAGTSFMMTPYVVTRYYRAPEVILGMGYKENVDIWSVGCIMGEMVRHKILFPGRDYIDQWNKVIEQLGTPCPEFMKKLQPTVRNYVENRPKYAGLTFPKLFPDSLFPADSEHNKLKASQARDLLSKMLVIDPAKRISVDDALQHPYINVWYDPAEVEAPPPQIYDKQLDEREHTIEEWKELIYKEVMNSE
activated p38, sequence (Q16539 whole entry, the tested form may be a part, canonical isoform): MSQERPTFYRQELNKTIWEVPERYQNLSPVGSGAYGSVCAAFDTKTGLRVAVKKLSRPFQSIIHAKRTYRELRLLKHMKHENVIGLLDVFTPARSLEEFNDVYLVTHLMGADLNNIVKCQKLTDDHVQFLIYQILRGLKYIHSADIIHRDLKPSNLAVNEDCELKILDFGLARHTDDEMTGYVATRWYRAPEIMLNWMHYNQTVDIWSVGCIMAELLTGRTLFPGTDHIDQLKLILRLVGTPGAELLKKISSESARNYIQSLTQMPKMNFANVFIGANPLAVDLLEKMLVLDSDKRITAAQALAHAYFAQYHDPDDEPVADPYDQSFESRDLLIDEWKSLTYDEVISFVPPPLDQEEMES

| Structure (SMILES) | Ki [1] [µM] | Ki [2] [µM] | Ki [3] [µM] | Ki [4] [µM] | p38/JNK3 [4] |
| --- | --- | --- | --- | --- | --- |
| Fc1ccc(-n2cc(-c3ccnc(NC4CCCCC4)n3)cn2)c(F)c1 [II-72, Cyclohexyl-{4-[l-(2,4-difluoro-phenyl)-1H-pyrazol-4-yl]-pyrimidin-2-yl}-amine] | > 10 | < 2 | < 2 | < 2 | >10 |
| Cc1c(-c2ccnc(Nc3ccc(F)cc3)n2)cnn1-c1ccccc1 [II-100] | > 10 | < 2 | < 2 | < 2 | >10 |
| Cc1c(-c2ccnc(Nc3ccc(Cl)cc3)n2)cnn1-c1ccccc1 [II-101] | > 10 | < 2 | < 2 | < 2 | >10 |
| Cc1c(-c2ccnc(Nc3ccc([N+](=O)[O-])cc3)n2)cnn1-c1ccccc1 [II-102] | > 10 | < 2 | < 2 | < 2 | >10 |

Second part, the compound after the results:

| Ki [1] [µM] | Ki [2] [µM] | Ki [3] [µM] | Ki [4] [µM] | p38/JNK3 [4] | Structure (SMILES) |
| --- | --- | --- | --- | --- | --- |
| > 10 | < 2 | < 2 | < 2 | >10 | c1ccc(Cn2cc(-c3ccnc(NC4CCCCC4)n3)cn2)cc1 [II-65] |
| > 10 | < 2 | < 2 | < 2 | >10 | c1ccc(-n2cc(-c3ccnc(NC4CCCCC4)n3)cn2)cc1 [II-67] |
| > 10 | 2 to 10 | 2 to 10 | < 2 | ≧10 | COc1ccc(-n2cc(-c3ccnc(NC4CCCCC4)n3)cn2)cc1 [II-70] |
| > 10 | < 2 | < 2 | < 2 | >10 | Clc1ccc(Cl)c(-n2cc(-c3ccnc(NC4CCCCC4)n3)cn2)c1 [II-71] |
